Assay results taken from patent US7964624B1, “Inhibitors of serine proteases” (priority 2005, dated 2011).

Tests used:
[1] = biological target: T1, HCV NS3 protease domain (Hepatitis C virus genotype 1b, UniProt Q9WMX2); experiment: biochemical; conditions: Enzyme Assay 1 (HCV NS3 Protease Domain Peptide Cleavage Assay) activity, apparent Ki class
T1 construct: The first 181 amino acids of NS3 (residues 1027-1207 of the viral polyprotein); hexa-histidine (C); made in house; host or cells: E. coli BL21/DE3 pLysS

[2] = biological target: T2, full-length hepatitis C viral protein NS3•4A (Hepatitis C virus genotype 1a, UniProt P27958); experiment: biochemical; set-up: species or system HCV sub-type strain 1a; conditions: Enzyme Assay 2 (HCV NS3 Peptide Cleavage Assay) activity, apparent Ki class
T2 construct: hexa-histidine (N); made in house; host or cells: Sf9 insect cells (baculovirus, pVL1392)

Compound | Ki [1] | Ki [2]
CCC[C@H](NC(=O)[C@@H]1C[C@]2(CC(c3cccc(Cl)c3)=NO2)CN1C(=O)C(NS(=O)(=O)c1ccccc1)c1ccccc1)C(=O)C(=O)NC1CC1 (stereo partly shown) [Compound 501] | > 500 nM | > 500 nM
CCC[C@H](NC(=O)[C@@H]1C[C@]2(CC(c3cccc(Cl)c3)=NO2)CN1C(=O)[C@@H](NC(=O)CC1CCCCC1)C(C)(C)C)C(=O)C(=O)N[C@@H](C)C(O)(c1ccccc1)c1ccccc1 [Compound 507] | > 500 nM | > 500 nM
CCCNC(=O)C(=O)[C@H](CCC)NC(=O)[C@@H]1C[C@]2(CC(c3cccc(Cl)c3)=NO2)CN1C(=O)[C@@H](NC(=O)CC1CCCCC1)C(C)(C)C [Compound 508] | 100 to 500 nM | 100 to 500 nM
C#CCCC(NC(=O)[C@@H]1C[C@]2(CC(c3cc(Cl)c(OC)cc3OC)=NO2)CN1C(=O)[C@@H](NC(=O)CC1CCOCC1)C(C)(C)C)C(=O)C(=O)NC1CC1 (stereo partly shown) [Compound 510] | 100 to 500 nM | < 100 nM
CCC[C@H](NC(=O)[C@@H]1C[C@]2(CC(c3cccc(Cl)c3)=NO2)CN1C(=O)[C@@H](NC(=O)CC1CCCCC1)C(C)(C)C)C(=O)C(=O)N1CC(F)(F)C1 [Compound 521] | 100 to 500 nM | < 100 nM
CCC[C@H](NC(=O)[C@@H]1C[C@]2(CC(c3ccccc3)=NO2)CN1C(=O)[C@@H](NC(=O)CC1CCCCC1)C(C)(C)C)C(=O)C(=O)NC1CC1 [Compound 531] | 100 to 500 nM | 100 to 500 nM
CCC[C@H](NC(=O)[C@@H]1C[C@]2(CC(c3cccc(Cl)c3)=NO2)CN1C(=O)[C@@H](NS(=O)(=O)c1ccc(OC)cc1)C(C)CC)C(=O)C(=O)NC1CC1 (stereo partly shown) [Compound 534] | > 500 nM | > 500 nM
CCC[C@H](NC(=O)[C@@H]1C[C@]2(CC(c3cccc(Cl)c3)=NO2)CN1C(=O)[C@@H](NC(=O)CC1CCCCC1)C(C)(C)C)C(=O)C(=O)N1CCC[C@H]1COC [Compound 537] | > 500 nM | > 500 nM
CCC[C@H](NC(=O)[C@@H]1C[C@]2(CC(c3cccc(Cl)c3)=NO2)CN1C(=O)[C@@H](NC(=O)CC1CCCCC1)C(C)(C)C)C(=O)C(=O)NCCc1cccc(OC)c1 [Compound 540] | 100 to 500 nM | 100 to 500 nM
CCC[C@H](NC(=O)[C@@H]1C[C@]2(CC(c3cccc(Cl)c3)=NO2)CN1C(=O)[C@@H](NC(=O)CC1(C)CCOCC1)C(C)(C)C)C(=O)C(=O)NC1CC1 [Compound 541] | 100 to 500 nM | < 100 nM
CCC[C@H](NC(=O)[C@@H]1C[C@]2(CC(c3cccc(Cl)c3)=NO2)CN1C(=O)[C@@H](NC(=O)CC1CCCCC1)C(C)(C)C)C(=O)C(=O)N[C@@H](C)c1ccccc1 [Compound 546] | 100 to 500 nM | 100 to 500 nM
CCC[C@H](NC(=O)[C@@H]1C[C@]2(CC(CC)=NO2)CN1C(=O)[C@@H](NC(=O)NC(C)(C)C)C(C)(C)C)C(=O)C(=O)NC1CC1 [Compound 559] | > 500 nM | > 500 nM
CCC[C@H](NC(=O)[C@@H]1C[C@]2(CC(c3cccc(Cl)c3)=NO2)CN1C(=O)[C@@H](NC(=O)CC1CCCCC1)C(C)(C)C)C(=O)C(=O)NC1CCS(=O)(=O)C1 (stereo partly shown) [Compound 565] | > 500 nM | > 500 nM
CCC[C@H](NC(=O)[C@@H]1C[C@]2(CC(CC)=NO2)CN1C(=O)[C@@H](NC(=O)CC1CCOCC1)C(C)(C)C)C(=O)C(=O)NC1CC1 [Compound 566] | > 500 nM | > 500 nM
CCC[C@H](NC(=O)[C@@H]1C[C@]2(CC(c3cccc(Cl)c3)=NO2)CN1C(=O)[C@@H](NC(=O)CC1CCCCC1)C(C)(C)C)C(=O)C(=O)NCc1nc2ccccc2[nH]1 [Compound 567] | > 500 nM | 100 to 500 nM
CCC[C@H](NC(=O)[C@@H]1C[C@]2(CC(c3cccc(Cl)c3)=NO2)CN1C(=O)[C@@H](NC(=O)CC1CCCCC1)C(C)(C)C)C(=O)C(=O)N1CCCCC1 [Compound 568] | > 500 nM | > 500 nM
CCC[C@H](NC(=O)[C@@H]1C[C@]2(CC(c3cccc(Cl)c3)=NO2)CN1C(=O)[C@@H](NC(=O)CC1CCCCC1)C(C)(C)C)C(=O)C(=O)Nc1ccc(F)c(F)c1 [Compound 573] | > 500 nM | > 500 nM
